For experiment [1], the system named is Ehrlich Ascites carcinoma. The conditions noted are these: Ehrlich Ascites carcinoma in mice; Chem. & Pharm. Bull. (Tokyo) 8, 1021-1028 (1960); cited from earlier work.
Experiment [2] relates to L1210 leukemia. Kind of experiment: NCI 3LE31, i.p.-implanted L1210 lymphoid leukemia. It counts as in vivo, DBA/2 mice. The method, then: The spectrum of antitumor activity of the compound of Example 1 was determined employing a number of standard National Cancer Institute (NCI) protocols. The antitumor activity was determined in vivo against several different tumors, employing various treatment schedules and routes of administration.
Samples of the test compounds of Examples 1-10 and a number of structurally-related control compounds were tested in accordance with National Cancer Institute test protocol 3LE31 (NCI Protocol 1.100, Cancer Chemotherapy Reports Part 3, Vol. 3, No. 2, September 1972) to determine the effects of the several compounds on i.p.-implanted L1210 leukemia (J. Nat'l. Cancer Inst. 13(5):1328, 1953). Each test involved implantation of the leukemia cells in six DBA/2 mice, one sex per experiment, the male mice weighing a minimum of 18 grams and the female mice weighing a minimum of 17 grams, and all of the test animals being within a three gram weight range. The test compound was administered by i.p. injections, in 0.1 ml. doses of diluted ascitic fluid (10^5 cells per dose), commencing one day after the tumor implant and continuing daily for nine days.
The test animals were weighed and survivors recorded on a regular basis during a thirty day test period. The ratio of survival time for the treated and control animals (T/C) was determined as a percentage.
The tests were carried out at varying dosage levels and with varying numbers of repetitions, depending upon the results obtained with each test compoud. […] A reproducible T/C of 150% or higher is considered significant activity.
The number of mice "cured", viz., those surviving from each animal test group after the thirty day test period, is indicated in parenthesis following the T/C percentage data in Table III below: […]

[3] abbreviates: Mus musculus, L1210, ip, 25 mg/kg i.p. daily for nine days, read-out: T/C % (survival time treated/control).
The mark [4] stands for this setting: Mus musculus, L1210, ip, 50 mg/kg i.p. daily for nine days, read-out: T/C % (survival time treated/control).
[5] abbreviates: Mus musculus, L1210, ip, 100 mg/kg i.p. daily for nine days, read-out: T/C % (survival time treated/control).
The mark [6] stands for this setting: Mus musculus, L1210, ip, 200 mg/kg i.p. daily for nine days, read-out: T/C % (survival time treated/control).
[7] abbreviates: Mus musculus, L1210, ip, 400 mg/kg i.p. daily for nine days, read-out: T/C % (survival time treated/control).
Setting [8] is: 200 mg/kg i.p. daily for nine days.
The mark [9] stands for this setting: 25 mg/kg i.p. daily for nine days.
[10] abbreviates: 50 mg/kg i.p. daily for nine days.
[11] abbreviates: 100 mg/kg i.p. daily for nine days.

The source of these data is US4634707A, “5-Pyrimidinecarboxamides and treatment of leukemia and tumors therewith” (Uniroyal Chemical Company, priority 1984, dated 1987).

Turning to `Cn1c(O)c(C(=O)Nc2ccccc2)c(=O)[nH]c1=O` [1-methyl derivative], the “anti-tumor activity (in words)” value in experiment [1] was “neither of its 1-methyl or 1-phenyl-substituted derivatives, exhibited anti-tumor activity”.

For `CC(C)c1cccc(C(C)C)c1NC(=O)c1c(O)n(-c2ccccc2)c(=S)n(-c2ccccc2)c1=O` [Control U], in experiment [2] (setting [3]), the response vs control in vivo at 25 mg/kg stood at 101%. Moreover, in experiment [2] (setting [4]), the response vs control in vivo at 50 mg/kg stood at 100%. The response vs control in vivo at 100 mg/kg in experiment [2] (setting [5]) was 104%. Also, in experiment [2] (setting [6]), the response vs control in vivo at 200 mg/kg is 112%.

In the case of `O=C(Nc1ccccc1)c1c(O)[nH]c(=O)[nH]c1=O` [Control C], the “activity in i.p.-implanted lymphoid leukemia test (in words)” value in experiment [2] (3LE31, reproducible T/C of 150% or higher is considered significant activity) is on record as “exhibited significant activity”. Moreover, the response vs control in vivo at 400 mg/kg in experiment [2] (setting [7]) is 233%.

For `COc1ccc(NC(=O)c2c(O)[nH]c(=O)[nH]c2=O)cc1` [Control F], the response vs control in vivo at 25 mg/kg in experiment [2] (setting [3]) stood at 109%. In experiment [2] (setting [4]), the response vs control in vivo at 50 mg/kg amounted to 105%. In addition, in experiment [2] (setting [5]), the response vs control in vivo at 100 mg/kg was found to be 105%. In addition, the response vs control in vivo at 200 mg/kg in experiment [2] (setting [6]) is 117%.

As to `O=C(Nc1ccccc1)c1c(O)[nH]c(=S)n(-c2ccccc2)c1=O` [Control O], the “T/C % (survival time treated/control)” value in experiment [2] (setting [8]) is reported as “Toxic”. Further, the response vs control in vivo at 25 mg/kg in experiment [2] (setting [3]) is 104%. Also, the response vs control in vivo at 50 mg/kg in experiment [2] (setting [4]) came to 115%. The response vs control in vivo at 100 mg/kg in experiment [2] (setting [5]) worked out at 123%.

`COc1ccc(NC(=O)c2c(O)[nH]c(=S)[nH]c2=O)cc1` [Example 6, 1,2,3,4-tetrahydro-6-hydroxy-N-(4-methoxyphenyl)-4-oxo-2-thioxo-5-pyrimidinecarboxamide]: in experiment [2] (setting [3]), the response vs control in vivo at 25 mg/kg came to 112%. In addition, in experiment [2] (setting [4]), the response vs control in vivo at 50 mg/kg came out at 108%. The response vs control in vivo at 100 mg/kg in experiment [2] (setting [5]) was 104%. Further, the response vs control in vivo at 200 mg/kg in experiment [2] (setting [6]) came to 127%. For the same compound, the response vs control in vivo at 400 mg/kg in experiment [2] (setting [7]) came out at 127%.

In the case of `O=C(Nc1ccccc1)c1c(O)n(-c2ccccc2)c(=O)[nH]c1=O` [1-phenyl derivative], the “anti-tumor activity (in words)” value in experiment [1] is on record as “neither of its 1-methyl or 1-phenyl-substituted derivatives, exhibited anti-tumor activity”.

In the case of `O=C(Nc1cccc(F)c1)c1c(O)[nH]c(=S)[nH]c1=O` [Example 4, N-(3-fluorophenyl)-1,2,3,4-tetrahydro-6-hydroxy-4-oxo-2-thioxo-5-pyrmidinecarboxamide], the response vs control in vivo at 25 mg/kg in experiment [2] (setting [3]) was determined as 114%. For the same compound, in experiment [2] (setting [4]), the response vs control in vivo at 50 mg/kg came out at 114%. Also, the response vs control in vivo at 100 mg/kg in experiment [2] (setting [5]) came to 128%. Moreover, in experiment [2] (setting [6]), the response vs control in vivo at 200 mg/kg is 155%.

Take `O=C1NC(=O)C(C(=O)Nc2ccccc2)C(=O)N1` [5-phenylcarbamoylbarbituric acid]: the “anti-tumor activity (in words)” value in experiment [1] was “exhibited anti-tumor activity”.

With `Cn1c(O)c(C(=O)Nc2ccc(Cl)cc2)c(=O)n(C)c1=S` [Control M], the “T/C % (survival time treated/control)” value in experiment [2] (setting [9]), in experiment [2] (setting [10]), in experiment [2] (setting [11]) and in experiment [2] (setting [8]) was “Toxic” in each case. Further, the response vs control in vivo at 1.5 mg/kg in experiment [2] (Mus musculus, L1210, ip, 1.5 mg/kg i.p. daily for nine days, read-out: T/C % (survival time treated/control)) is 106%. In addition, the response vs control in vivo at 3 mg/kg in experiment [2] (Mus musculus, L1210, ip, 3 mg/kg i.p. daily for nine days, read-out: T/C % (survival time treated/control)) was 92%. For the same compound, the response vs control in vivo at 6 mg/kg in experiment [2] (Mus musculus, L1210, ip, 6 mg/kg i.p. daily for nine days, read-out: T/C % (survival time treated/control)) was determined as 95%. Besides, the response vs control in vivo at 12 mg/kg in experiment [2] (Mus musculus, L1210, ip, 12 mg/kg i.p. daily for nine days, read-out: T/C % (survival time treated/control)) came out at 106%. Moreover, the response vs control in vivo at 0.75 mg/kg in experiment [2] (Mus musculus, L1210, ip, .75 mg/kg i.p. daily for nine days, read-out: T/C % (survival time treated/control)) is 102%.

`O=C(Nc1ccccc1)c1c(O)n(-c2ccccc2)c(=S)n(-c2ccccc2)c1=O` [Control T]: the “T/C % (survival time treated/control)” value in experiment [2] (setting [9]) is given as 102%; in experiment [2] (setting [10]), 109%; in experiment [2] (400 mg/kg i.p. daily for nine days), 109%.

With `O=C(Nc1ccccc1)c1c(O)n(-c2ccccc2)c(=S)n(-c2ccccc2)c1=O` [Control S], the response vs control in vivo at 25 mg/kg in experiment [2] (setting [3]) worked out at 97%. In addition, in experiment [2] (setting [4]), the response vs control in vivo at 50 mg/kg was determined as 100%.

As for `Cn1c(O)c(C(=O)Nc2ccccc2)c(=O)n(C)c1=S` [Control L], the “T/C % (survival time treated/control)” value in experiment [2] (setting [9]) is reported as 108%; in experiment [2] (setting [10]), “Toxic”; in experiment [2] (setting [11]), “Toxic”; in experiment [2] (setting [8]), “Toxic”.
